Test [1] has as its target T1, tauP301L fibrils (Homo sapiens, UniProt P10636, P618L).
T1 construct: we expressed and purified full-length tau featuring a P301L mutation; His6 (N); made in house; host or cells: E. coli BL21 (DE3)
The test can be described thus: Cellular seeding assay with pre-formed tauP301L fibrils, HEK293 tau-RD(LM)-YFP biosensor cells. The conditions noted are these: for inhibition of propagation of pre-formed tauP301L fibrils: mature fibrils incubated with NAP 36 h before cells; for IC50: pre-formed 0.19 μM tauP301L fibrils treated 36 h with NAP, cells 48 h, three repeated experiments, read-out: fibril capping IC50 in cells; for inhibition of endogenous tau aggregation without co-incubation: without the 36 h inhibitor + mature fibril co-incubation period. The test is classed as cell-based. The procedure: Given that pathogenic tau can be secreted from cells in various forms (as oligomers, aggregates, or mature fibrils), we tested whether NAPs could block the cellular transmission of pre-formed fibrils. In this experiment, NAPs were incubated with mature tauP301L fibrils for 36 h prior to treatment of cells expressing tau-RD(LM)-YFP. […] We determined a fibril capping IC50 in cells in the 5 μM range across three repeated experiments (FIG. 4).
We then considered the possibility of di-NAPs 12 and 13 entering cells and inhibiting seeding by interacting with endogenous tau-RD(LM)-YFP, rather than with extracellular pre-formed fibrils. We thus repeated the experiment without the 36 h inhibitor+mature fibril co-incubation period.
For seeding experiments with fibrillar tau, recombinant tauP301L fibrils were prepared as described above (see the section on fibril formation) and sonicated for 3 min prior to use in this assay. In a reaction volume of 40, 8 μL of fibrils was diluted with 31 μL of low-serum Opti-MEM medium and then mixed with 1 μL of NAPs (DMSO concentration was constant across various concentrations of inhibitors). The reaction mixture was then allowed to incubate at 37° C. for 36 h, then mixed with 2 μL of Lipofectamine 2000, and further incubated for 20 min at rt. A 10 μL aliquot of this mixture was then added to 90 μL of cells (15,000 cells/well). Cells were incubated for additional 48 h before taking measurements on a BioTek Cytation 5 cell imager and a microplate reader. 10×10 pictures/well were taken at 20× magnification under an FITC channel, and the punctate counting were carried out using built-in software. […] Every experiment included control wells (no tau, no heparin, and no NAP). All data plots were generated with SigmaPlot. IC50 values were calculated by fitting the data set using the sigmoidal logistic four-parameter equation. Error bars represent standard deviation from technical replicates.

Test [2] has as its target T2, tauP301L (Homo sapiens, UniProt P10636, P618L).
T2 construct: we expressed and purified full-length tau featuring a P301L mutation; His6 (N); made in house; host or cells: E. coli BL21 (DE3)
Put plainly: Cellular seeding assay, monomeric tauP301L co-incubated with inhibitor, HEK293 tau-RD(LM)-YFP biosensor cells. Format: cell-based. The conditions noted are these: 0.19 μM monomeric tauP301L + heparin co-incubated 4 days, cells 48 h. The source says: Di-N-aminated Hexapeptides Block the Cellular Transmission of Tau Fibrils. […] This mode of propagation is important for the spread of NFTs, neuropil threads, and plaque-associated neurites—all of which contribute to the progression of Alzheimer's disease. To test whether NAP inhibitors are able to block the seeding activity of recombinant tauP301L, we employed HEK293 biosensor cells that stably express a tau-yellow fluorescent protein fusion [tau-RD(LM)-YFP]. When we treated these cells with preformed heparin-induced fibrils of tauP301L, we observed a large number of intracellular tau aggregates, as indicated by punctate fluorescence after 48 h.
Mxyl-NAPs inhibit the seeding capacity of full-length tau in a biosensor cell assay. The ability to halt the prion-like spread of tau fibrils from diseased to healthy cells using designed molecules remains a considerable challenge. […] To test whether mxyl-NAPs could block this seeding activity, we treated HEK293 biosensor cells that express a tau yellow fluorescent protein fusion (tau-RD[LM]-YFP) with tauP301L incubated in the presence or absence of inhibitors. Heparin-induced fibrils of tauP301L grown in the absence of mxyl-NAPs led to strong intracellular FRET signal resulting from endogenous tau-RD(LM)-YFP aggregation. Quantitative brightness threshold-based analysis of puncta within the biosensor cells provided a positive baseline for seed-competent recombinant tau fibrils.
Cellular Seeding Assay. The tauP301L was diluted to a final concentration of […] in an aggregation buffer containing 100 mM sodium acetate, 10 μM heparin, and 2 mM DTT, pH: 7.4. The protein was incubated in a microcentrifuge tube for 4 days at 37° C. with a shaking speed of 100 rpm. Control vials included those wherein (1) buffer was added in place of tauP301L and (2) buffer was added in place of heparin.
For each experiment, cells were plated at a density of 15,000 cells/well in 96-well tissue culture plates.
For seeding by monomeric tau, freshly purified recombinant tauP301L was co-incubated with heparin and NAPs for 4 days in an aggregation buffer at 37° C. (see the above section). Following incubation, the reaction mixture was diluted in the low-serum Opti-MEM medium, mixed with Lipofectamine 2000 in a 20:1 ratio (complex/Lipofectamine) and allowed to incubate for an additional 20 min at rt. A mixture of 0.19 μM tau+1.9 μM or 0.009 μM inhibitors (final concentrations) was added to the cells. Cells were incubated for an additional 48 h before taking measurements on a BioTek Cytation 5 cell imager and a microplate reader. 10×10 pictures/well were taken at 20× magnification under an FITC channel, and the punctate counting was carried out using built-in software. […] Every experiment included control wells (no tau, no heparin, and no NAP). All data plots were generated with SigmaPlot. Error bars shown are standard deviation from technical replicates.

Test [3] has as its target T2, tauP301L. The test can be described thus: Transmission electron microscopy of heparin-induced tauP301L fibrils. The test is classed as biochemical. The conditions noted are these: 10 μM tauP301L + heparin, 20 μM NAP (2-fold molar excess), 96 h. The procedure: This is consistent with previous reports showing that the endpoint ThT fluorescence and fibrilization lag time for full-length tau are particularly resistant to perturbation by inhibitors. […] To confirm the effect of NAPs on the growth of mature tau fibrils, we used transmission electron microscopy (TEM) to visualize the morphology and maturity of fibrillar species. Heparin-induced tauP301L fibrils were allowed to grow over 96 h in the presence or absence of inhibitors. Untreated tauP301L afforded large, helical, and amyloid-like filamentous fibrils.
Inhibition of full-length tau fibrilization by mxyl-NAPs in TEM. To confirm the results from ThT assays, we used TEM to visualize tauP301L fibrils in the absence or presence of synthesized NAPs. As expected, heparin-induced tauP301L formed dense networks of mature fibrils (FIG. 8).
Transmission Electron Microscopy. For analyzing fibrils by TEM, aggregation was carried out under conditions similar to the assay performed above but with ThT excluded and a final reaction volume of 100 μL. Samples were incubated in a microcentrifuge tube for 4 days at 37° C. with a mixing speed of 100 rpm. A 10 μL aliquot of the sample was then applied to 400-meshed formvar-/carbon-coated copper grids and negative-stained with 2% uranyl acetate. Micrographs were obtained on a JEOL 2011 transmission electron microscope at 200 kV.

“Also recorded” adds a separate entry of the source. *1 amine or outer side, *2 acyl side, *3 side chain or, on linkers, in order; H or OH if unused. Where a SMILES comes first, the peptide text is derived from it. Primed or numbered codes have the meaning given here. [ ]: non-standard residue; d: D form. The star is where a group is joined. aIle′ = Ile with backbone amide N-amino (hydrazide NNH2), CC[C@H](C)[C@@H](C(=O)[*:2])N(N)[*:1]; aVal = Val with backbone amide N-amino (hydrazide NNH2), CC(C)[C@@H](C(=O)[*:2])N(N)[*:1]; X2 = NN([C@@H](Cc1ccc(O)cc1)C(=O)[*:2])[*:1]; X1 = CC[C@H](C)[C@@H](C(=O)[*:2])N(N)[*:1]; N(NH2)LysNH2 = NCCCC[C@@H](C(N)=O)N(N)*; X3 = CC(C)[C@@H](C(=O)[*:2])N(N)[*:1]

By IC50 is commonly meant the concentration that inhibits the measured activity by half.

T2 sequence (P10636 1-383 isoform P10636-6 P243L): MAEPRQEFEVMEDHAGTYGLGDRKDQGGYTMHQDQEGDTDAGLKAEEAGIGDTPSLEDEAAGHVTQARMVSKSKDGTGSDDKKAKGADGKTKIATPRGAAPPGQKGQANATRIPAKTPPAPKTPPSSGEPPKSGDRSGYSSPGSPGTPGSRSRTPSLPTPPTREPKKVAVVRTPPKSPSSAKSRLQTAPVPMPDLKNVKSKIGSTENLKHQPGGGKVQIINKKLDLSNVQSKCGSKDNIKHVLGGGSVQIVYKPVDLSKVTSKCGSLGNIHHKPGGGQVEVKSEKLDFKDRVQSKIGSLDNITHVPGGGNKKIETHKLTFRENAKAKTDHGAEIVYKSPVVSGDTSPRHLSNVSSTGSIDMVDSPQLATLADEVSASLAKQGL
T1 sequence (P10636 1-383 isoform P10636-6 P243L): as above

Take `CC[C@H](C)[C@@H](C(=O)N[C@H](C(=O)N(N)[C@@H](Cc1ccc(O)cc1)C(=O)N[C@@H](CCCCN)C(N)=O)C(C)C)N(N)C(=O)[C@H](CCC(N)=O)NC(=O)[C@@H](NC(C)=O)C(C)C` [Compound 12, Ac-Val-Gln-aIle-Val-aTyr-Lys-NH2] (Ac-VQ[X1]V[X2]K-NH2): in test [1], the “inhibition of propagation of pre-formed tauP301L fibrils” value is reported as “effectively inhibit propagation in a dose-dependent manner”, the IC50 was about 5 µM and the “inhibition of endogenous tau aggregation without co-incubation” value was “failed to inhibit endogenous tau aggregation”. For the same compound, the “seeding capacity of tauP301L (intracellular puncta)” value (shortened to “seeding capacity of tauP301L”) in test [2] (0.009 μM inhibitor) is “less pronounced”. In test [2] (1.9 μM inhibitor), the “seeding capacity of tauP301L” value is “significantly reduced seeding capacity; also recorded: sufficient to prevent seeding”. Further, the “tauP301L fibril morphology by TEM” value in test [3] is “particularly effective at attenuating fibril growth; also recorded: non-fibrillary amorphous aggregates similar to control”.

On to “Ac-aVal-Gln-aIle-Ile-Asn-Lys-NH2 (Ac-[aVal]Q[aIle′]INK-NH2; SMILES CC[C@H](C)[C@H](NC(=O)[C@H]([C@@H](C)CC)N(N)C(=O)[C@H](CCC(N)=O)NC(=O)[C@H](C(C)C)N(N)C(C)=O)C(=O)N[C@@H](CC(N)=O)C(=O)N[C@@H](CCCCN)C(N)=O) [Compound 4]”, for which the “inhibition of propagation of pre-formed tauP301L fibrils” value in test [1] was “generally ineffective”. For the same compound, the “seeding capacity of tauP301L” value in test [2] (0.009 μM inhibitor) is “far weaker anti-seeding activity”; in test [2] (1.9 μM inhibitor) it was “far weaker anti-seeding activity; also recorded: ineffective”. Further, the “tauP301L fibril morphology by TEM” value in test [3] is “particularly effective at attenuating fibril growth; also recorded: non-fibrillary amorphous aggregates similar to control”.

Consider `CC[C@H](C)[C@H](NC(=O)[C@H](CCC(N)=O)NC(=O)[C@@H](NC(C)=O)C(C)C)C(=O)N(N)[C@H](C(=O)N[C@@H](Cc1ccc(O)cc1)C(=O)N(N)[C@@H](CCCCN)C(N)=O)C(C)C` [Compound 13, Ac-Val-Gln-Ile-aVal-Tyr-aLys-NH2] (Ac-VQI[X3]Y-{N(NH2)LysNH2}), for which, in test [1], the “inhibition of propagation of pre-formed tauP301L fibrils” value is reported as “effectively inhibit propagation in a dose-dependent manner”, the IC50 is about 5 µM and the “inhibition of endogenous tau aggregation without co-incubation” value is “failed to inhibit endogenous tau aggregation”. Also, the “seeding capacity of tauP301L” value in test [2] (0.009 μM inhibitor) was “less pronounced”. In test [2] (1.9 μM inhibitor), the “seeding capacity of tauP301L” value is recorded as “significantly reduced seeding capacity; also recorded: sufficient to prevent seeding”. Also, the “tauP301L fibril morphology by TEM” value in test [3] is “particularly effective at attenuating fibril growth; also recorded: non-fibrillary amorphous aggregates similar to control”.

(Values after patent US20230399361A1, “MACROCYCLIC PEPTIDES” (UNIVERSITY OF NOTRE DAME DU LAC, priority 2022, published 2023).)
